# What was measured:
# [1] = Oral absorption test in rats under a fed condition (plasma concentration); format: in vivo; settings: for AUC(0-inf) / Cmax: rat, plasma, po, 30 mg/kg, rats, fed, oral 30 mg/kg
# Description: A solution of the compound of the present invention (dissolved in a mixture of water : PEG 400 = 1:4) or a suspension in 0.5% methyl cellulose (MC) was compulsorily administered per os at. the dose of 30 mg/kg to three rats under a fed condition. Blood after the administration was periodically collected and its concentration in plasma was measured.
# The organic layer (upper layer) was collected, the solvent was evaporated in a nitrogen stream, the residue was dissolved in 0.2 mL of a mobile phase (refer to the following) and 80 µL thereof were measured under the following analytical conditions.
# The organic layer was collected, the solvent was evaporated in a nitrogen stream, the residue was dissolved in 0.2 mL of a mobile phase (refer to the following) and 80 µL thereof were measured under the following condition for high-performance liquid chromatography. Condition for detection: • (Detector: Single-stage quadrupole mass spectrometer • Ionization method: Atmospheric pressure chemical ionization method • Temperature of nebulizer: 475°C • Corona voltage: 3 kV • Monitoring ion: m/z 569 (hydrogen addition ion of the compound of Example 78), 549 (hydrogen addition ion of the compound of Example 85)) Condition for separation: • (Column: Symmetry RP8 manufactured by Waters (3.0 mmφ × 150 mm) • Temperature of column: 45°C • Mobile phase: a solution where 0.1% ammonium formate (pH 4)/methanol/acetonitrile are mixed in […] • Flow rate: 0.8 mL/min)
# To 150 µL of plasma were added a 0.1 mol/L aqueous solution of sodium hydroxide and 0.2 mL of an analogous compound (500 ng/mL of the compound of Example 28 of the Japanese Patent Application No. 8/158,743, i.e. 8-(benzimidazol-2-ylthio)-N-(2,6-diisopropylphenyl)octanamide as an internal standard, stirred and extracted with 6 mL of an isopropanol/hexane (5: 95) solution. The organic layer was collected, the solvent was evaporated in a nitrogen stream, the residue was dissolved in 0.2 mL of a mobile phase (refer to the following) and 80 µL thereof were measured under the following condition for high-performance liquid chromatography.
# ACAT [2] = experiment: ACAT inhibitory activity test in HepG2 cells; format: cell-based; settings: 25-hydroxycholesterol 10 µg/mL, 18 hours, cholesterol ester per protein
# Description: (§1) J774 cells or HepG2 cells were sown on a 24-well plate and incubation was carried out at 37°C for 24 hours in a 5% CO2 incubator using a Dulbecco's modified Eagle's medium for J774 cells and an Eagle's minimum essential medium for HepG2 cells (where both media contained 10% of fetal bovine serum). […] The medium was taken out, washed with PBS twice, extracted with 1.5 mL of hexane-isopropanol (3:2) and concentrated to dryness. The extract was dissolved in isopropanol containing 0.2 mL of 10% Triton X-100 and then total cholesterol (TC) and free cholesterol (FC) were determined by a Cholesterol E Test Wako (Wako Pure Chemical) and a Free Cholesterol E Test Wako (Wako Pure Chemical), respectively. The residue of the cell after extraction was solubilized with 0.25 mL of 2N NaOH at 37°C for 30 minutes and protein was determined by a BCA Protein Assay Reagent (Pierce). From the differencebetween TC and FC, amount of cholesterolester per protein was calculated and, from the comparative calculation with the control, IC50 value was determined.
# [3] = tested on: lipid-loaded model of F1B hamster; experiment: Arteriosclerotic model animal test (lipid-loaded F1B hamster); settings: for CE/FC Adrenal Gland / CE/FC Lipid Accumulation to Artery / CE/FC Liver / CE/FC Small Intestine: ratio to control (1.0)
# Description: Male hamsters of a Bio F1B strain purchased from Nippon Charles River were randomly grouped so that each group comprised six. As from eight weeks age, they were loaded with a high-fat feed (0.3% of cholesterol and 10% of coconut oil) for ten weeks while the drug was administered by mixing with the feed. After ten weeks, blood was collected and cholesterol in plasma was measured. Further, arterywas excised after fixingbyperfusion with a 10% formalin solution. This was incised, lipid which was accumulated in the artery was stained with Oil Red O and the stained area was measured using an image analyzer.
# A high-fat feed (0.3% of cholesterol and 10% of coconut oil) was prepared by way of compounding ratio of cholesterol : coconut oil : feed (CE-2) = 0.03:1:9. Incidentally, a high-fat feed was given to the control group and the administered period was 10 weeks.
# Hamster under a non-fasted state was anesthetized, subj ected to an abdominal section to expose the abdominal artery and about 2.5 mL of blood were collected. The collected blood was centrifuged at 3, 000 rpm for 15 minutes to collect the plasma and then total cholesterol (TC) and free cholesterol (FC) in plasma were determined by a Cholesterol E-Test Wako (a cholesterol oxidase DAOS method) and a Free Cholesterol E-Test Wako (a cholesterol oxidase DAOS method), respectively.
# About 500 mg of liver, small intestine and adrenal body were excised and washed with a physiological saline solution and lipid concentration in the tissues was measured. In the measurement, 10 mL of chloroform : methanol (2:1) as an extracting solution for lipid in the tissue were placed in the liver and the small intestine, homogenized at 3,000 rpm using a Polytron Homogenizer PT 3100 and allowed to stand at 4°C for one night. The extract was centrifuged at 1,500 rpm for 15 minutes, 0.2 mL of the supernatant liquid was evaporated to dryness using a vacuum pump, the residue was dissolved in 50 µL of isopropanol and each lipid was subjected to the same kits whereupon TC and FC were quantified. With regard to the adrenal body, it was finely cut using scissors and 0.5 mL of chloroform : methanol (2:1) was added thereto followed by being allowed to stand at 4°C for one night. That was centrifuged at 1,500 rpm for 15 minutes, 0.2 mL of the supernatant liquid was evaporated to dryness using a vacuum pump, the residue was dissolved in 50 µL of isopropanol and each lipid was subjected to the same kits whereupon TC and FC were quantified.
# With regard to the total cholesterol (TC) in plasma in the group to which the drug was administered, the relative ratio to TC in the control group was used as an indicator while, with regard to the tissue, difference between TC and FC was defined as CE (cholesterol ester) and the lipid-constituting ratio, CE/FC, in each organ was determined whereupon their relative ratio to each control was calculated and used as an indicator. Thus, in those indicators, the control group was defined as 100% and the calculation using the following formula was carried out so as to use a plasma TC lowering action by ACAT inhibitory action to liver and small intestine of the group to which the drug was administered as an indicator and also to use the variation of CE/FC ratio by an ACAT inhibitory action to each organ as an indicator. Indicator (%) for total cholesterol in plasma = [(TC of drug-administered group)/(TC of the control group)] × 100 [formula] Indicator (%) for lipid constituting ratio in each organ = [(CE/FC of drug-administered group)/(CE/FC of the control group)] × 100 [formula]
# After collection of the blood, a 18-G injection needle was inserted into apex and perfused with a physiological saline solution (120 mmHg) for about 5minutes. It was further perfused with a 10% neutral formalin buffer (120 mmHg) for about 5 minutes. Bulbar and thoracic artery was excised and fixed in a 10% formalin buffer.
# [4] = Water solubility in liquid I of the Japanese Pharmacopoeia; format: physicochemical
# ACAT [5] = biological target: T1, ACAT (Mus musculus, UniProt Q61263); experiment: ACAT inhibitory activity test in J774 cells (anti-foaming action); format: cell-based
# T1 construct: J774 cells or HepG2 cells were sown on a 24-well plate; endogenous in cells; host or cells: J774 cells
# T1 sequence (Q61263 1-540): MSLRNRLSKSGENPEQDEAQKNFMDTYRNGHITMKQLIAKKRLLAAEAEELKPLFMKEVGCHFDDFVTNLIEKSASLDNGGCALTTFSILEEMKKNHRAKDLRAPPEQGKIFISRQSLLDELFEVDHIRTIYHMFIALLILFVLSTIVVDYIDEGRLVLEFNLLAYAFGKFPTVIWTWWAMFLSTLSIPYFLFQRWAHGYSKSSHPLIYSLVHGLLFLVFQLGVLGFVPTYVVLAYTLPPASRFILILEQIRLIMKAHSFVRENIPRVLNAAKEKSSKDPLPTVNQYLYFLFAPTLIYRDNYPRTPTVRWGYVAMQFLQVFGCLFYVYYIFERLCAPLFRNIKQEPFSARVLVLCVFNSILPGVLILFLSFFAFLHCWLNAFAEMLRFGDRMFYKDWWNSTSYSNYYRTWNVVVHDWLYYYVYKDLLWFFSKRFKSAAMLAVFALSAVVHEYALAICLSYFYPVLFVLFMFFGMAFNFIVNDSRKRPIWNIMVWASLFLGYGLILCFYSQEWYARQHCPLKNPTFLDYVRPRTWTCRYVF
# Description: as §1
# [6] = dose 10 mg/kg in feed, 10 weeks
# [7] = dose 30 mg/kg in feed, 10 weeks
# [8] = dose 100 mg/kg in feed, 10 weeks
structure (smiles),measurement,setting,value
"CC(C)c1cc(O)cc(C(C)C)c1NC(=O)CN1CCN(CCSc2nc3cccc(C(F)(F)F)c3o2)CC1.Cl [Compound of the Invention, 2-[4-[2-(7-trifluoromethylbenzoxazol-2-ylthio)ethyl]piperazin-1-yl]-N-(2,6-diisopropyl-4-hydroxyphenyl)acetamide hydrochloride]",improvement of oral absorption,"[1]; compared with Example 85, medium 0.5% methyl cellulose (MC) suspension, rats 30 mg/kg",about 9.4 fold
same,increase in oral absorption,"[1]; compared with Example 85, medium water/PEG 400 (1:4), rats 30 mg/kg",about 8 fold
same,AUC(0-inf),[1]; medium 0.5% MC Suspension,639 ng·h/mL
same,Cmax,[1]; medium 0.5% MC Suspension,167 ng/mL
same,AUC(0-inf),[1]; medium PEG 400: Water (4:1),486 ng·h/mL
same,Cmax,[1]; medium PEG 400: Water (4:1),141 ng/mL
same,IC50,ACAT [2],2.9 µM
same,dose from which suppression of lipid accumulation was effective,"[3]; F1B hamsters, drug in high-fat feed, 10 weeks",≥ 3 mg/kg
same,plasma cholesterol at doses effective in suppression of lipid accumulation,"[3]; F1B hamsters, total cholesterol in plasma relative to control, Dunnett's test",without a significant decrease of plasma cholesterol
same,CE/FC Adrenal Gland,"[3]; dose 3 mg/kg in feed, 10 weeks",1.02
same,CE/FC Lipid Accumulation to Artery,"[3]; dose 3 mg/kg in feed, 10 weeks",0.69
same,CE/FC Liver,"[3]; dose 3 mg/kg in feed, 10 weeks",1.08
same,CE/FC Small Intestine,"[3]; dose 3 mg/kg in feed, 10 weeks",1.16
same,CE/FC Adrenal Gland,[3]; [6],1.11
same,CE/FC Lipid Accumulation to Artery,[3]; [6],0.33
same,CE/FC Liver,[3]; [6],0.88
same,CE/FC Small Intestine,[3]; [6],1.02
same,CE/FC Adrenal Gland,[3]; [7],0.89
same,CE/FC Lipid Accumulation to Artery,[3]; [7],0.21
same,CE/FC Liver,[3]; [7],0.60
same,CE/FC Small Intestine,[3]; [7],0.91
same,CE/FC Adrenal Gland,[3]; [8],0.52
same,CE/FC Lipid Accumulation to Artery,[3]; [8],0.17
same,CE/FC Liver,[3]; [8],0.24
same,CE/FC Small Intestine,[3]; [8],0.20
same,increase of solubility,[4]; compared with the lead compound (Example 85),5 fold
same,solubility,"[4]; pH 1.2, simulated gastric fluid",500 µg/mL
same,macrophage selectivity (IC50 (HepG2)/IC50 (J774)),ACAT [5],about 45 fold
